What is called Km is the substrate concentration at which the rate is half of its maximum.

For the experiment, the system named is T1, RsD2HGDH.
T1 construct: gene D2HGDH
It is filed as biochemical, Ralstonia solanacearum. To be noted: free enzyme; 100 µM DCIP, 200 µM PMS, 50 mM PB pH 7.0 (assay of b15), 25 °C.

Consider `O=C(O)CC[C@@H](O)C(=O)O` [D2HG], for which the Km was 433 µM.

Values taken from PMC8869338 (Biosensors, 2022).
